Experimental data as given in ChEMBL document CHEMBL3751771, “LpxC Inhibitors as Effective Therapy Against Multidrug Resistant Bacterial Infections” (2015).
Converted amounts (≈) assume the structure as drawn.

Experiments:
Assay type in all cases: functional
[1] = tested on: Escherichia coli; experiment: Antibacterial activity against Escherichia coli ATCC 25922
[2] = tested on: Pseudomonas aeruginosa; experiment: Antibacterial activity against Pseudomonas aeruginosa ATCC 27853
[3] = tested on: Klebsiella pneumoniae; experiment: Antibacterial activity against Klebsiella pneumoniae A-651

SMILES	MIC [1]	MIC [2]	MIC [3]
CCOc1ccc(-c2cc3n(c2)C(=O)N(CC[C@](C)(C(=O)NO)S(C)(=O)=O)C3)c(Cl)c1	≤ 0.063 µg/mL	4 µg/mL (≈ 8.51 µM)	0.125 µg/mL (≈ 0.266 µM)
C[C@@](CCN1Cc2cc(C#Cc3ccc(COC(N)=O)cc3)cn2C1=O)(C(=O)NO)S(C)(=O)=O	≤ 0.063 µg/mL	0.5 µg/mL (≈ 1.02 µM)	0.25 µg/mL (≈ 0.512 µM)
C[C@@](CCN1Cc2cc(C#Cc3ccc(OCCO)cc3)cn2C1=O)(C(=O)NO)S(C)(=O)=O	0.125 µg/mL (≈ 0.263 µM)	1 µg/mL (≈ 2.1 µM)	0.5 µg/mL (≈ 1.05 µM)
COc1ccc(-c2cc3n(c2)C(=O)N(CC[C@](C)(C(=O)NO)S(C)(=O)=O)C3)c(F)c1	0.125 µg/mL (≈ 0.284 µM)	1 µg/mL (≈ 2.28 µM)	≤ 0.063 µg/mL
C[C@@](CCN1Cc2cc(C#Cc3ccc(C4(CN)CC4)cc3)cn2C1=O)(C(=O)NO)S(C)(=O)=O.O=CO	8 µg/mL	4 µg/mL	8 µg/mL
C[C@@](CCN1Cc2cc(C#CC#C[C@@H]3C[C@@]3(F)CO)cn2C1=O)(C(=O)NO)S(C)(=O)=O	0.25 µg/mL (≈ 0.554 µM)	0.5 µg/mL (≈ 1.11 µM)	0.25 µg/mL (≈ 0.554 µM)
